Reference: the supplement of paper PMC10307832

Experiments:
Experiment in all cases: relative viability (nuclei count vs DMSO), 5 days (fraction); higher = more cells survive
Linifanib + Pictilisib = compound: Cc1ccc(F)c(NC(=O)Nc2ccc(-c3cccc4[nH]nc(N)c34)cc2)c1 [Linifanib] + CS(=O)(=O)N1CCN(Cc2cc3nc(-c4cccc5[nH]ncc45)nc(N4CCOCC4)c3s2)CC1 [Pictilisib] (partner 1 µM)
Summary of the method: (§1)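 Five library-drug doses in √10 steps were combined with a fixed anchor-drug dose, or a single drug was given alone, by pin tool to lung cancer cell lines in 1536-well plates the day after seeding. Nuclei were stained and counted after 5 days. Relative viability is the nuclei count in treated wells over that in vehicle wells, taken as the median of duplicate plates.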

Linifanib + Vorinostat = compound: Cc1ccc(F)c(NC(=O)Nc2ccc(-c3cccc4[nH]nc(N)c34)cc2)c1 [Linifanib] + O=C(CCCCCCC(=O)Nc1ccccc1)NO [Vorinostat] (partner 1 µM)
Summary of the method: as §1

Linifanib + Navitoclax = compound: Cc1ccc(F)c(NC(=O)Nc2ccc(-c3cccc4[nH]nc(N)c34)cc2)c1 [Linifanib] + CC1(C)CCC(c2ccc(Cl)cc2)=C(CN2CCN(c3ccc(C(=O)NS(=O)(=O)c4ccc(N[C@H](CCN5CCOCC5)CSc5ccccc5)c(S(=O)(=O)C(F)(F)F)c4)cc3)CC2)C1 [Navitoclax] (partner 0.5 µM)
Summary of the method: as §1

Linifanib + Linsitinib = compound: Cc1ccc(F)c(NC(=O)Nc2ccc(-c3cccc4[nH]nc(N)c34)cc2)c1 [Linifanib] + C[C@]1(O)C[C@@H](c2nc(-c3ccc4ccc(-c5ccccc5)nc4c3)c3c(N)nccn32)C1 [Linsitinib] (partner 1 µM)
Summary of the method: as §1

Linifanib + Alpelisib = compound: Cc1ccc(F)c(NC(=O)Nc2ccc(-c3cccc4[nH]nc(N)c34)cc2)c1 [Linifanib] + Cc1nc(NC(=O)N2CCC[C@H]2C(N)=O)sc1-c1ccnc(C(C)(C)C(F)(F)F)c1 [Alpelisib] (partner 2 µM)
Summary of the method: as §1

Linifanib = compound: Cc1ccc(F)c(NC(=O)Nc2ccc(-c3cccc4[nH]nc(N)c34)cc2)c1 [Linifanib]
Summary of the method: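 Viability was defined as treated-well nuclei divided by vehicle-well nuclei, with the median taken over replicate plates. Cells from lung cancer lines sat overnight at 37 °C in 1536-well plates, received five √10-spaced library-drug doses by pinning on vehicle-anchored plates, and grew 5 days without medium change before one-step fixation, permeabilisation and Hoechst staining, 4× imaging and MetaXpress nuclear counts. Only plates with control CV under 25% and at least one doubling were kept.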

Cell Line | relative viability (Linifanib + Pictilisib; first compound 0.03162 µM) | relative viability (Linifanib + Pictilisib; first compound 0.1 µM) | relative viability (Linifanib + Pictilisib; first compound 0.3162 µM) | relative viability (Linifanib + Vorinostat; first compound 0.03162 µM) | relative viability (Linifanib + Vorinostat; first compound 0.1 µM) | relative viability (Linifanib + Vorinostat; first compound 0.3162 µM) | relative viability (Linifanib + Navitoclax; first compound 0.03162 µM) | relative viability (Linifanib + Navitoclax; first compound 0.1 µM) | relative viability (Linifanib + Navitoclax; first compound 0.3162 µM) | relative viability (Linifanib + Linsitinib; first compound 0.03162 µM) | relative viability (Linifanib + Linsitinib; first compound 0.1 µM) | relative viability (Linifanib + Linsitinib; first compound 0.3162 µM) | relative viability (Linifanib + Alpelisib; first compound 0.03162 µM) | relative viability (Linifanib + Alpelisib; first compound 0.1 µM) | relative viability (Linifanib + Alpelisib; first compound 0.3162 µM) | relative viability (Linifanib; 0.03162 µM) | relative viability (Linifanib; 0.1 µM) | relative viability (Linifanib; 0.3162 µM)
201T | 0.69 | 0.704 | 0.668 | 1.01 | 0.981 | 1.02 | 1.2 | 1.23 | 1.21 | 1.01 | 1.02 | 1.05 | 1 | 1.06 | 0.978 | 1 | 0.992 | 0.982
A-427 | 0.796 | 0.724 | 0.711 | 0.884 | 0.86 | 0.918 | 1.07 | 0.986 | 0.998 | 1.1 | 1.11 | 1.08 | 1.13 | 1.16 | 1.09 | 1.05 | 1.07 | 0.989
ABC-1 | 0.759 | 0.953 | 0.742 | 1.19 | 1.31 | 0.906 | – | – | – | 0.825 | 1.03 | 0.788 | 0.928 | 1.05 | 0.927 | 1.03 | 0.842 | 0.672
BEN | 0.516 | 0.606 | 0.581 | 0.622 | 0.558 | 0.667 | 0.069 | 0.203 | 0.0675 | 0.842 | 0.896 | 0.83 | 0.963 | 1.11 | 0.992 | 0.888 | 1.16 | 0.915
CAL-12T | 0.439 | 0.478 | 0.33 | 0.884 | 0.986 | 0.724 | 1.18 | 1.21 | 1.04 | 0.905 | 0.722 | 0.755 | 1.27 | 1.3 | 1.28 | 1.15 | 0.99 | 0.9
COR-L23 | 0.754 | 0.717 | 0.686 | 0.462 | 0.402 | 0.384 | 1.05 | 1.04 | 0.857 | 0.933 | 1.01 | 0.815 | 0.81 | 0.957 | 0.732 | 1.1 | 1.11 | 1
COR-L 105 | 0.422 | 0.437 | 0.388 | 0.86 | 0.809 | 0.796 | 0.808 | 0.938 | 0.796 | 0.87 | 0.978 | 0.715 | 1 | 1.02 | 1.01 | 0.975 | 0.97 | 0.904
ChaGo-K-1 | 0.697 | 0.783 | 0.741 | 0.767 | 0.807 | 0.775 | 0.991 | 1.17 | 0.978 | – | – | – | – | – | – | 1.07 | 1.01 | 0.983
EKVX | 0.508 | 0.512 | 0.454 | 0.731 | 0.774 | 0.75 | 0.973 | 1.15 | 0.868 | 1.11 | 1.03 | 0.868 | 0.9 | 1.14 | 0.831 | 0.982 | 1.01 | 0.91
EMC-BAC-2 | 0.555 | 0.59 | 0.523 | 0.47 | 0.465 | 0.426 | 1.19 | 1.17 | 1.15 | 0.818 | 0.877 | 0.762 | 0.778 | 0.792 | 0.683 | 1.07 | 1.03 | 0.965
EPLC-272H | 0.355 | 0.324 | 0.28 | 0.522 | 0.467 | 0.513 | 1.09 | 1.09 | 0.962 | 1.04 | 1.2 | 1.15 | 0.75 | 1.02 | 0.909 | 0.883 | 1.23 | 0.884
H3255 | 0.509 | 0.507 | 0.488 | 0.788 | 0.795 | 0.812 | 0.557 | 0.642 | 0.562 | 0.976 | 1.14 | 0.845 | 0.752 | 0.787 | 0.706 | 1.04 | 1.01 | 1.02
HARA | 0.337 | 0.52 | 0.3 | 0.598 | 0.479 | 0.579 | 1.16 | 1.12 | 1.05 | 0.991 | 0.931 | 0.939 | 0.864 | 0.983 | 0.756 | 0.926 | 1.04 | 0.907
HCC-15 | 0.833 | 0.804 | 0.71 | 0.796 | 0.838 | 0.792 | 0.651 | 0.776 | 0.682 | 0.881 | 0.89 | 0.817 | 0.881 | 0.941 | 0.887 | 1.08 | 1.05 | 0.939
HCC-44 | 0.605 | 0.674 | 0.595 | 1.22 | 1.04 | 1.14 | 1.05 | 0.956 | 0.942 | 0.741 | 0.71 | 0.664 | 0.82 | 0.824 | 0.793 | 1.05 | 0.95 | 0.944
